Target: T1, Adenylate cyclase type 1 (Homo sapiens, UniProt Q08828)
Test: Ability to activate the conversion of [32P] ATP to [32P]-cyclic AMP mediated by adenylate cyclase 1
Format: functional
Conditions: not given
Target sequence in this assay (Q08828 whole entry): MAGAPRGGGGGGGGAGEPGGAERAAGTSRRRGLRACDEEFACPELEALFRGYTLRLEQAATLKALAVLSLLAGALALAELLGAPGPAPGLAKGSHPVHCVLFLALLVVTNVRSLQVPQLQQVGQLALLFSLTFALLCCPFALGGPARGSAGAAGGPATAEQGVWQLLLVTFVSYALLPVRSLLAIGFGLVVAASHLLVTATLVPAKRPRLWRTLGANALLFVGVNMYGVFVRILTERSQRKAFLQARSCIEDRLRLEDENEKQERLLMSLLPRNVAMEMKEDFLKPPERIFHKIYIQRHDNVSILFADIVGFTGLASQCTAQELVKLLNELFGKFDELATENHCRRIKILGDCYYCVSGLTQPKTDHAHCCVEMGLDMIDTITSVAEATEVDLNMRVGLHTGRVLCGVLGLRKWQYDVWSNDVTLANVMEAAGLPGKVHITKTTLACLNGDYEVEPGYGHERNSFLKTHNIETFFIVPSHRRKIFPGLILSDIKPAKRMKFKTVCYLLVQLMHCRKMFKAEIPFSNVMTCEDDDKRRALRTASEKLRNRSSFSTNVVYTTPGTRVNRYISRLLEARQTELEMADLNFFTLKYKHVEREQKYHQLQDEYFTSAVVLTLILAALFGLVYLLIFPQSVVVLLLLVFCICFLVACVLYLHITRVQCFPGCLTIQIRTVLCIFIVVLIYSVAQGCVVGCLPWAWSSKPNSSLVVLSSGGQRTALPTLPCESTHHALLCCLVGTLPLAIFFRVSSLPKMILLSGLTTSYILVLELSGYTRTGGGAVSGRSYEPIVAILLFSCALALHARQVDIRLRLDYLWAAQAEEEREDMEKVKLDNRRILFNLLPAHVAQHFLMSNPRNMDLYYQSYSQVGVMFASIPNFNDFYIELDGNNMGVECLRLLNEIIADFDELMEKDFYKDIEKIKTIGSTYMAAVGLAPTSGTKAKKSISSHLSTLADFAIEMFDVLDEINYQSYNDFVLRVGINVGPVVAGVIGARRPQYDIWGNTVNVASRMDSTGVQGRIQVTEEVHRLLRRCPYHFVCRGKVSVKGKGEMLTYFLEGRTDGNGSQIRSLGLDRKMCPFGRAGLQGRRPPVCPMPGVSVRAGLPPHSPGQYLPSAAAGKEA

| SMILES | EC50 [nM] |
| --- | --- |
| C=C[C@@]1(C)CC(=O)[C@]2(O)[C@@]3(C)[C@@H](O)CCC(C)(C)[C@@H]3[C@H](OC(=O)NCCO)[C@H](O)[C@@]2(C)O1 | > 2000 |
| C=C[C@@]1(C)CC(=O)[C@]2(O)[C@@]3(C)[C@@H](O)CCC(C)(C)[C@@H]3[C@H](OC(=O)NCCC(C)(C)C)[C@H](OC(C)=O)[C@@]2(C)O1 | > 2000 |
| C=C[C@@]1(C)CC(=O)[C@]2(O)[C@@]3(C)[C@@H](O)CCC(C)(C)[C@@H]3[C@H](OC(=O)NCCN3CCCCC3)[C@H](O)[C@@]2(C)O1 | < 2000 |
| C=C[C@@]1(C)CC(=O)[C@]2(O)[C@@]3(C)[C@@H](O)CCC(C)(C)[C@@H]3[C@H](O)[C@H](OC(=O)NCCC(C)(C)C)[C@@]2(C)O1 | > 2000 |

More lines, now with the values ahead:

| EC50 [nM] | SMILES |
| --- | --- |
| < 2000 | C=C[C@@]1(C)CC(=O)[C@]2(O)[C@@]3(C)[C@@H](O)CCC(C)(C)[C@@H]3[C@H](OC(=O)NCCN)[C@H](OC(C)=O)[C@@]2(C)O1 |
| > 2000 | C=C[C@@]1(C)CC(=O)[C@]2(O)[C@@]3(C)[C@@H](O)CCC(C)(C)[C@@H]3[C@H](OC(=O)NCC(C)C)[C@H](OC(C)=O)[C@@]2(C)O1 |
| > 2000 | C=C[C@@]1(C)CC(=O)[C@]2(O)[C@@]3(C)[C@@H](O)CCC(C)(C)[C@@H]3[C@H](OC(=O)NCCc3ccc(N)cc3)[C@H](O)[C@@]2(C)O1 |

Target: T1, Adenylate cyclase type 1
Test: Conversion of [32P] ATP to [32P]-cyclic AMP mediated by adenylate cyclase 1
Format: functional
Conditions: read-out: EC50
Target sequence in this assay (Q08828 whole entry): as above

| SMILES | EC50 [nM] |
| --- | --- |
| C=C[C@@]1(C)CC(=O)[C@]2(O)[C@@]3(C)[C@@H](O)CCC(C)(C)[C@@H]3[C@H](OC(=O)NCCO)[C@H](O)[C@@]2(C)O1 | 3600 |
| C=C[C@@]1(C)CC(=O)[C@]2(O)[C@@]3(C)[C@@H](O)CCC(C)(C)[C@@H]3[C@H](OC(=O)NCCC(C)(C)C)[C@H](OC(C)=O)[C@@]2(C)O1 | 8100 |
| C=C[C@@]1(C)CC(=O)[C@]2(O)[C@@]3(C)[C@@H](O)CCC(C)(C)[C@@H]3[C@H](OC(=O)NCCN3CCCCC3)[C@H](O)[C@@]2(C)O1 | 1700 |
| C=C[C@@]1(C)CC(=O)[C@]2(O)[C@@]3(C)[C@@H](O)CCC(C)(C)[C@@H]3[C@H](O)[C@H](OC(=O)NCCC(C)(C)C)[C@@]2(C)O1 | 9600 |

Continued, values first:

| EC50 [nM] | SMILES |
| --- | --- |
| 600 | C=C[C@@]1(C)CC(=O)[C@]2(O)[C@@]3(C)[C@@H](O)CCC(C)(C)[C@@H]3[C@H](OC(=O)NCCN)[C@H](OC(C)=O)[C@@]2(C)O1 |
| 4100 | C=C[C@@]1(C)CC(=O)[C@]2(O)[C@@]3(C)[C@@H](O)CCC(C)(C)[C@@H]3[C@H](OC(=O)NCC(C)C)[C@H](OC(C)=O)[C@@]2(C)O1 |
| 5100 | C=C[C@@]1(C)CC(=O)[C@]2(O)[C@@]3(C)[C@@H](O)CCC(C)(C)[C@@H]3[C@H](OC(=O)NCCc3ccc(N)cc3)[C@H](O)[C@@]2(C)O1 |

Target: T1, Adenylate cyclase type 1
Test: (§1) Inhibition of [125 I]6-IHPP-forskolin binding to adenylate cyclase 1
Conditions: not given
Target sequence in this assay (Q08828 whole entry): as above

| SMILES | IC50 [nM] |
| --- | --- |
| C=C[C@@]1(C)CC(=O)[C@]2(O)[C@@]3(C)[C@@H](O)CCC(C)(C)[C@@H]3[C@H](OC(=O)NCCO)[C@H](O)[C@@]2(C)O1 | 230 |
| C=C[C@@]1(C)CC(=O)[C@]2(O)[C@@]3(C)[C@@H](O)CCC(C)(C)[C@@H]3[C@H](OC(=O)NCCC(C)(C)C)[C@H](OC(C)=O)[C@@]2(C)O1 | 271 |
| C=C[C@@]1(C)CC(=O)[C@]2(O)[C@@]3(C)[C@@H](O)CCC(C)(C)[C@@H]3[C@H](OC(=O)NCCN3CCCCC3)[C@H](O)[C@@]2(C)O1 | 123 |
| C=C[C@@]1(C)CC(=O)[C@]2(O)[C@@]3(C)[C@@H](O)CCC(C)(C)[C@@H]3[C@H](O)[C@H](OC(=O)NCCC(C)(C)C)[C@@]2(C)O1 | 608 |

Continued, values first:

| IC50 [nM] | SMILES |
| --- | --- |
| 31 | C=C[C@@]1(C)CC(=O)[C@]2(O)[C@@]3(C)[C@@H](O)CCC(C)(C)[C@@H]3[C@H](OC(=O)NCCN)[C@H](OC(C)=O)[C@@]2(C)O1 |
| 167 | C=C[C@@]1(C)CC(=O)[C@]2(O)[C@@]3(C)[C@@H](O)CCC(C)(C)[C@@H]3[C@H](OC(=O)NCC(C)C)[C@H](OC(C)=O)[C@@]2(C)O1 |
| 162 | C=C[C@@]1(C)CC(=O)[C@]2(O)[C@@]3(C)[C@@H](O)CCC(C)(C)[C@@H]3[C@H](OC(=O)NCCc3ccc(N)cc3)[C@H](O)[C@@]2(C)O1 |

Target: T1, Adenylate cyclase type 1
Test: as §1
Conditions: not given
Target sequence in this assay (Q08828 whole entry): as above

| SMILES | IC50 [nM] |
| --- | --- |
| C=C[C@@]1(C)CC(=O)[C@]2(O)[C@@]3(C)[C@@H](O)CCC(C)(C)[C@@H]3[C@H](OC(=O)NCCO)[C@H](O)[C@@]2(C)O1 | > 150 |
| C=C[C@@]1(C)CC(=O)[C@]2(O)[C@@]3(C)[C@@H](O)CCC(C)(C)[C@@H]3[C@H](OC(=O)NCCC(C)(C)C)[C@H](OC(C)=O)[C@@]2(C)O1 | > 150 |
| C=C[C@@]1(C)CC(=O)[C@]2(O)[C@@]3(C)[C@@H](O)CCC(C)(C)[C@@H]3[C@H](OC(=O)NCCN3CCCCC3)[C@H](O)[C@@]2(C)O1 | < 150 |
| C=C[C@@]1(C)CC(=O)[C@]2(O)[C@@]3(C)[C@@H](O)CCC(C)(C)[C@@H]3[C@H](O)[C@H](OC(=O)NCCC(C)(C)C)[C@@]2(C)O1 | > 150 |

The next lines start with the values.

| IC50 [nM] | SMILES |
| --- | --- |
| < 150 | C=C[C@@]1(C)CC(=O)[C@]2(O)[C@@]3(C)[C@@H](O)CCC(C)(C)[C@@H]3[C@H](OC(=O)NCCN)[C@H](OC(C)=O)[C@@]2(C)O1 |
| > 150 | C=C[C@@]1(C)CC(=O)[C@]2(O)[C@@]3(C)[C@@H](O)CCC(C)(C)[C@@H]3[C@H](OC(=O)NCC(C)C)[C@H](OC(C)=O)[C@@]2(C)O1 |
| > 150 | C=C[C@@]1(C)CC(=O)[C@]2(O)[C@@]3(C)[C@@H](O)CCC(C)(C)[C@@H]3[C@H](OC(=O)NCCc3ccc(N)cc3)[C@H](O)[C@@]2(C)O1 |

Target: T1, Adenylate cyclase type 1
Test: Maximum stimulation activity measured with 100 uM forskolin mediated by adenylate cyclase 1
Format: functional
Conditions: not given
Target sequence in this assay (Q08828 whole entry, looked up): as the sequence (Q08828 whole entry) above

| SMILES | Activity [%] |
| --- | --- |
| C=C[C@@]1(C)CC(=O)[C@]2(O)[C@@]3(C)[C@@H](O)CCC(C)(C)[C@@H]3[C@H](OC(=O)NCCO)[C@H](O)[C@@]2(C)O1 | 85 |
| C=C[C@@]1(C)CC(=O)[C@]2(O)[C@@]3(C)[C@@H](O)CCC(C)(C)[C@@H]3[C@H](OC(=O)NCCC(C)(C)C)[C@H](OC(C)=O)[C@@]2(C)O1 | 84 |
| C=C[C@@]1(C)CC(=O)[C@]2(O)[C@@]3(C)[C@@H](O)CCC(C)(C)[C@@H]3[C@H](OC(=O)NCCN3CCCCC3)[C@H](O)[C@@]2(C)O1 | 80 |
| C=C[C@@]1(C)CC(=O)[C@]2(O)[C@@]3(C)[C@@H](O)CCC(C)(C)[C@@H]3[C@H](O)[C@H](OC(=O)NCCC(C)(C)C)[C@@]2(C)O1 | 58 |

Next, values leading:

| Activity [%] | SMILES |
| --- | --- |
| 125 | C=C[C@@]1(C)CC(=O)[C@]2(O)[C@@]3(C)[C@@H](O)CCC(C)(C)[C@@H]3[C@H](OC(=O)NCCN)[C@H](OC(C)=O)[C@@]2(C)O1 |
| 93 | C=C[C@@]1(C)CC(=O)[C@]2(O)[C@@]3(C)[C@@H](O)CCC(C)(C)[C@@H]3[C@H](OC(=O)NCC(C)C)[C@H](OC(C)=O)[C@@]2(C)O1 |
| 83 | C=C[C@@]1(C)CC(=O)[C@]2(O)[C@@]3(C)[C@@H](O)CCC(C)(C)[C@@H]3[C@H](OC(=O)NCCc3ccc(N)cc3)[C@H](O)[C@@]2(C)O1 |
